Measured values reported in patent US8344010B2, “Fused imidazole derivatives as TRPV3 antagonist” (Glenmark Pharmaceuticals S.A., priority 2008, dated 2013).

Target: T1, Human TRPV3 (Homo sapiens, UniProt Q8NET8)
T1 construct: expressed in transfected cells; host or cells: CHO cells (selected with G-418)
T1 sequence (Q8NET8 1-790): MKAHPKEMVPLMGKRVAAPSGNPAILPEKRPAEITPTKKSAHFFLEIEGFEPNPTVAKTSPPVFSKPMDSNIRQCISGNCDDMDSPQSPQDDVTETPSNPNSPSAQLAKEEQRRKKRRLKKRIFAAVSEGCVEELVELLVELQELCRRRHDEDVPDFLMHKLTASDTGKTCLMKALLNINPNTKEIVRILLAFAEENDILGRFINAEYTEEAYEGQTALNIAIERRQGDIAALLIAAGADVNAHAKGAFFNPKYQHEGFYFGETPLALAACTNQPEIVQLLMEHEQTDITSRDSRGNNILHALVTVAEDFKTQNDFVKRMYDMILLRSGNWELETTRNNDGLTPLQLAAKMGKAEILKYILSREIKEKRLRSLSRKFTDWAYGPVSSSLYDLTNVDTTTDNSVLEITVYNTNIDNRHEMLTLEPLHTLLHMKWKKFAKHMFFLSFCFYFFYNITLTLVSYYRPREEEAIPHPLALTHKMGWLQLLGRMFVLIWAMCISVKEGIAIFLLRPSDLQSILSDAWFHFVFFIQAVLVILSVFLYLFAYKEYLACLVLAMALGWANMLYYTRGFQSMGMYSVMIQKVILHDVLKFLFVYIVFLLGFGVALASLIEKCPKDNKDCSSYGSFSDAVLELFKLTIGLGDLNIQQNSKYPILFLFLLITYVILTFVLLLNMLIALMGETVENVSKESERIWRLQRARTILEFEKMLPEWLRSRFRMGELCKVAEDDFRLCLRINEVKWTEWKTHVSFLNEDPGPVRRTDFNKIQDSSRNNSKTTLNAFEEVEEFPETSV
Assay: 45Calcium uptake assay: inhibition of 2-APB induced cellular uptake of radioactive calcium
Format: cell-based
Settings: human TRPV3 expressing CHO cells, 2-APB 500 μM; for inhibition at 1 µM: 1 μM test compound, read-out: Percentage Inhibition (1 μM); for inhibition at 10 µM: 10 μM test compound, read-out: Percentage Inhibition (10 μM); for IC50: class symbol
Source text: The illustrative examples of the present invention are screened for TRPV3 activity according to a modified procedure described in Tóth, A., Kedei, N., Wang, Y. and Blumberg, P. M. Life Sciences (2003), 73, 487-498. The screening of the compounds can be carried out by other methods and procedures known to a person skilled in the art. Such screening methods may be found in (a) Hu, H.-Z. et al. J. Biol. Chem. (2004), 279, 35741-35747; (b) Smith, G. D. et al. Nature (2002), 418, 186-190; (c) Peier, A. M. et al. Science (2002), 296, 2046-2049.
Screening for TRPV3 antagonist using the ^45Calcium uptake assay The inhibition of TRPV3 receptor activation was followed as inhibition of 2-aminoethoxydiphenylborate (2-APB) induced cellular uptake of radioactive calcium. Test compounds were dissolved in dimethyl sulfoxide (DMSO) to prepare 20 mM stock solution and then diluted using plain medium with DMEM/F-12 containing 1.8 mM CaCl2 to get desired concentration. Final concentration of DMSO in the reaction was 0.5% (v/v). Human TRPV3 expressing CHO cells were grown in DMEM/F-12 medium with 10% FBS, 1% penicillin-streptomycin solution, 400 μg/ml of G-418. Cells were seeded 24 h prior to the assay in 96 well plates so as to get ˜50,000 cells per well on the day of experiment. Cells were treated with test compounds for 10 minutes followed by addition of 2-APB at a final concentration of 500 μM and 5 μCi/ml^45Ca^+2 for 4 minutes. Cells were washed and lysed using buffer containing 1% Triton X-100, 0.1% deoxycholate and 0.1% SDS. Radioactivity in the lysate was measured in Packardt Top count after addition of liquid scintillant. Concentration response curves were plotted as a % of maximal response obtained in the absence of test antagonist. IC50 value was calculated from concentration response curve by nonlinear regression analysis using GraphPad PRISM software.
Percentage inhibition at concentrations of 1.0 μM and 10.0 μM are given in the table along with IC50 details for selected examples.

inhibition at 1 µM [%] | inhibition at 10 µM [%] | IC50 [nM] | Compound
16.1 | 81.1 | – | COc1cccc(/C=C/c2nc3ccccc3n2-c2nccs2)c1OCC1CC1 [Example 46]
96.6 | 99.1 | 100 to 500 | CCC(CC)Oc1c(/C=C/c2nc3ccccc3n2-c2ccc(C#N)cn2)cccc1OC [Example 10, 6-{2-[(E)-2-(2-(1-Ethylpropoxy)-3-methoxyphenyl)vinyl]-1H-benzimidazol-1-yl}nicotinonitrile]
94.2 | 97.3 | 100 to 500 | COc1cccc(/C=C/c2nc3ccccc3n2-c2ccc(C#N)cn2)c1OCc1ccc(F)cc1F [Example 18, 6-(2-{(E)-2-[2-(2,4-Difluorobenzyloxy)-3-methoxyphenyl]vinyl}-1H-benzimidazol-1-yl)nicotinonitrile]
95.1 | 98.1 | 50 to 100 | N#Cc1ccc(-n2c(/C=C/c3cccc(OC(F)F)c3OCC3CCC3)nc3cc(Cl)cnc32)nc1 [Example 102, 6-(6-Chloro-2-{(E)-2-[2-(cyclobutylmethoxy)-3-difluoromethoxyphenyl]vinyl}-3H-imidazo[4,5-b]pyridin-3-yl)nicotinonitrile]
89.1 | 95.8 | 100 to 500 | COc1cccc(/C=C/c2nc3ccccc3n2-c2ccc(C#N)cn2)c1OC1CCCC1 [Example 13, 6-{2-[(E)-2-(2-Cyclopentyloxy-3-methoxyphenyl)vinyl]-1H-benzimidazol-1-yl}nicotinonitrile]
47.3 | 86.6 | – | COc1cccc(/C=C/c2nc3ccccc3n2-c2ccc(C)cc2)c1OCC1CC1 [Example 31, 2-[(E)-2-(2-Cyclopropylmethoxy-3-methoxyphenyl)vinyl]-1-(4-methylphenyl)-1H-benzimidazole]
95.2 | 97.6 | 50 to 100 | CCCCCOc1c(/C=C/c2nc3cc(Cl)cnc3n2-c2ccc(C#N)cn2)cccc1OC [Example 93, 6-{6-Chloro-2-[(E)-2-(2-pentyloxy-3-methoxyphenyl)vinyl]-3H-imidazo[4,5-b]pyridin-3-yl}nicotinonitrile]
3.02 | 24.5 | – | COc1cccc(/C=C/c2nc3ccc[n+]([O-])c3n2-c2ccc(C#N)cn2)c1OC1CCCC1 [Example 92, 6 (2-{(E)-2-[2-(cyclopentyloxy)-3-methoxyphenyl]ethenyl}-4-oxido-3H-imidazo[4,5-b]pyridin-3-yl)pyridine-3-carbonitrile]
50.9 | 81.7 | – | COc1cccc(/C=C/c2nc3ccccc3n2-c2ccc([N+](=O)[O-])cn2)c1OC1CCCC1 [Example 4, 2-[(E)-2-(2-[Cyclopentyloxy]-3-methoxyphenyl)vinyl]-1-(5-nitropyridin-2-yl)-1H-benzimidazole]
78.8 | 93.6 | 100 to 500 | COc1cccc(/C=C/c2nc3ccccc3n2-c2ncc(C(F)(F)F)cc2Cl)c1OC1CCCC1 [Example 29, 1-[3-Chloro-5-(trifluoromethyl)pyridin-2-yl]-2-[(E)-2-(2-cyclopentyloxy-3-methoxyphenyl)vinyl]-1H-benzimidazole]
90.3 | 95.1 | > 500 | COc1cccc(/C=C/c2nc3ccccc3n2-c2ccc(C#N)cn2)c1OCc1ccccc1C#N [Example 15]

Second part, the compound before the results:

Compound | inhibition at 1 µM [%] | inhibition at 10 µM [%] | IC50 [nM]
COc1cccc(/C=C/c2nc3ccccc3n2-c2ccc(C#N)nn2)c1OC1CCCC1 [Example 20, 6-{2-[(E)-2-(2-[Cyclopentyloxy]-3-methoxyphenyl)vinyl]-1H-benzimidazol-1-yl}pyridazine-3-carbonitrile] | 0 | 52.7 | –
COc1cccc(/C=C/c2nc3ccccc3n2Cc2ccc(C(C)(C)C)cc2)c1OC1CCCC1 [Example 40, 2-[(E)-2-(2-Cyclopentyloxy-3-methoxyphenyl)vinyl]-1-(4-tert-butylbenzyl)-1H-benzimidazole] | 11.7 | 12.3 | –
CCCCOc1c(/C=C/c2nc3ccccc3n2-c2ccc(C(F)(F)F)cn2)cccc1OC [Example 85, 2-[(E)-2-(2-butoxy-3-methoxyphenyl)vinyl]-1-(5-trifluoromethylpyridin-2-yl)-1H-benzimidazole] | 71.1 | 90.2 | 100 to 500
COc1cccc(/C=C/c2nc3ccccc3n2-c2ccc(C#N)cn2)c1OCc1ccccc1F [Example 14, 6-(2-{(E)-2-[2-(2-Fluorobenzyloxy)-3-methoxyphenyl]vinyl}-1H-benzimidazol-1-yl)nicotinonitrile] | 93.2 | 97.7 | 100 to 500
COc1cccc(/C=C/c2nc3ccccc3n2Cc2ccc(C#N)cc2)c1OCC1CC1 [Example 42, 4-({2-[(E)-2-(2-Cyclopropylmethoxy-3-methoxyphenyl)vinyl]-1H-benzimidazol-1-yl}methyl)benzonitrile] | 60.2 | 87.3 | –
COc1cccc(/C=C/c2nc3cc(F)c(F)cc3n2-c2ccc(C#N)nn2)c1OC1CCCC1 [Example 76, 6-{2-[(E)-2-(2-Cyclopentyloxy-3-methoxyphenyl)vinyl]-5,6-difluoro-1H-benzimidazol-1-yl}pyridazine-3-carbonitrile] | 96.3 | 97 | 100 to 500
CCCCOc1c(/C=C/c2nc3ccccc3n2-c2ccc(C#N)cc2)cccc1OC [Example 36, 4-{2-[(E)-2-(2-Butoxy-3-methoxyphenyl)vinyl]-1H-benzimidazol-1-yl}benzonitrile] | 82.8 | 96 | 100 to 500
CCOC(=O)c1ccc(-n2c(/C=C/c3cccc(OC)c3OC3CCCC3)nc3cc(F)c(F)cc32)nn1 [Example 73, Ethyl 6-{2-[(E)-2-(2-cyclopentyloxy-3-methoxyphenyl)vinyl]-5,6-difluoro-1H-benzimidazol-1-yl}pyridazine-3-carboxylate] | 53.5 | 75.5 | –
COc1ccc2c(c1)nc(/C=C/c1cccc(OC)c1OC1CCCC1)n2-c1ccc(C#N)cn1 [Example 56, 6-{2-[(E)-2-(2-[Cyclopentyloxy]-3-methoxyphenyl)vinyl]-5-methoxy-1H-benzimidazol-1-yl}nicotinonitrile] | 96.8 | 98.9 | 100 to 500
COc1cccc(/C=C/c2nc3ccccc3n2-c2nc3ccccc3s2)c1OCC1CC1 [Example 50, 2-{2-[(E)-2-(2-Cyclopropylmethoxy-3-methoxyphenyl)vinyl]-1H-benzimidazol-1-yl}-1,3-benzothiazole] | 26.1 | 46.6 | –
CCCCOc1c(/C=C/c2nc3cccnc3n2-c2ccc(C#N)cn2)cccc1OC [Example 86, 6-{2-[(E)-2-(2-Butoxy-3-methoxyphenyl)vinyl]-3H-imidazo[4,5-b]pyridin-3-yl}nicotinonitrile] | 92.6 | 95.2 | 100 to 500
COc1cccc(/C=C/c2nc3ccccc3n2-c2ccccn2)c1OC1CCCC1 [Example 2, 2-[(E)-2-(2-Cyclopentyloxy-3-methoxyphenyl)vinyl]-1-pyridin-2-yl-1H-benzimidazole] | 3.64 | 85 | –
